Test results reported in paper PMC11802822, “Comprehensive safety and toxicity analysis of 2,2’-Bipyridine derivatives in combating MRSA biofilm formation and persistence” (Frontiers in Cellular and Infection Microbiology, 2025).
Values after ≈ are worked out from the molar mass of the structure shown.

How the values were obtained:
[1] = system: M. luteus (MTCC 106); assay: Agar well diffusion; details: Micrococcus luteus, MTCC106
[2] = system: K. pneumoniae (MTCC 618); assay: Broth microdilution MIC; details: for MIC: Klebsiella pneumoniae, MTCC618, 18 h, read-out: Minimum inhibitory concentration
[3] = system: E. coli (MTCC739); assay: Broth microdilution MIC; details: for MIC: Escherichia coli, MTCC739, 18 h, read-out: Minimum inhibitory concentration
[4] = system: B. subtilis (MTCC 441); assay: Agar well diffusion; details: for zone of inhibition at 50 µg/mL: Bacillus subtilis, MTCC441
[5] = system: P. aeruginosa (MTCC1934); assay: Broth microdilution MIC; details: for MIC: Pseudomonas aeruginosa, MTCC1934, 18 h, read-out: Minimum inhibitory concentration
[6] = system: E. coli (MTCC739); assay: Agar well diffusion; details: for zone of inhibition at 50 µg/mL: Escherichia coli, MTCC739
[7] = system: V. cholerae (MTCC 3906); assay: Broth microdilution MIC; assay type: cell-based, Vibrio cholerae; details: for MIC: Vibrio cholerae, MTCC3906, 18 h, read-out: Minimum inhibitory concentration
[8] = system: MTCC 737; assay: Biofilm inhibition assay (crystal violet); details: S. aureus; at MIC or higher concentrations
Description: After incubation, cells were washed with 1X PBS, and stained with 100 µl of Crystal Violet dye for 15 min, and rinsed again with 1X PBS.

[9] = system: MRSA 831; assay: PI uptake assay; assay type: cell-based, methicillin-resistant S. aureus; details: derivatives 100 µg/ml, Polymyxin B 10 μM, 1 h
Description: (§1) MTCC 737 and MRSA 831 were grown, washed, and resuspended in 5 mM HEPES (pH 7.2), with the OD600 normalized to 0.5. […] Polymyxin B (10 μM), a membrane destabilizer, was used as a reference control. Drug-free and vehicle controls (cells treated with 0.5% DMSO) were included to analyze changes in fluorescence. After 1 h of treatment, cultures were centrifuged and stained with 5 µM PI dye for 15 min. Following staining, the cultures were washed twice to remove the extra dye, and fluorescence was recorded at 485 nm excitation and 525 nm emission wavelengths ([Zhou et al., 2020]).

[10] = system: S. aureus (MTCC737); assay: Agar well diffusion; details: for zone of inhibition at 50 µg/mL: Staphylococcus aureus, MTCC737
[11] = system: MRSA 831; assay: Broth microdilution MIC; details: 18 h; for MIC: Staphylococcus aureus, MRSA, read-out: Minimum inhibitory concentration
[12] = system: MTCC 737; assay: PI uptake assay; assay type: cell-based, Staphylococcus aureus; details: derivatives 100 µg/ml, Polymyxin B 10 μM, 1 h
Description: as §1

[13] = system: MRSA 831; assay: Neutropenic thigh infection model in mice; details: neutropenic BALB/c mice, MRSA 831 10^8 CFU/ml, oral 30 mg/kg, after 2 h and 24 h, vs untreated control
[14] = system: S. aureus (MTCC737); assay: Broth microdilution MIC; details: for MIC: Staphylococcus aureus, MTCC737, 18 h, read-out: Minimum inhibitory concentration
[15] = system: K. pneumoniae (MTCC 618); assay: Agar well diffusion; details: 50 µg/ml, ND = Not detected
[16] = system: P. aeruginosa (MTCC1934); assay: Agar well diffusion; details: for zone of inhibition at 50 µg/mL: Pseudomonas aeruginosa, MTCC1934
[17] = system: V. cholerae (MTCC 3906); assay: Agar well diffusion; assay type: cell-based, Vibrio cholerae; details: for zone of inhibition at 50 µg/mL: Vibrio cholerae, MTCC3906
[18] = system: MRSA 831 (MRSA); assay: Agar well diffusion; details: MRSA 831, 50 µg/ml, ND = Not detected; for zone of inhibition at 50 µg/mL: Staphylococcus aureus, MRSA
[19] = system: MRSA 831 persister cells; assay: Persister killing assay; assay type: cell-based, methicillin-resistant S. aureus; details: MRSA persisters; 4-fold MIC
Description: To evaluate the persister-killing activity of 2,2’-Bipy derivatives, MTCC 737 and MRSA 831 cells were grown overnight to the stationary phase at 37°C ([Kim et al., 2018b]). […]. The bacterial densities of persisters were recorded at OD600 at hourly intervals from 0 to 6 h.

[20] = Cytotoxicity (MTT assay); assay type: cell-based, murine; details: mouse, 3T3-L1 fibroblast cells, 3T3L-1 cells, read-out: IC50 (cytotoxicity, MTT)
Description: The murine fibroblast 3T3 L-1 cell line was procured from the National Centre for Cell Science (NCCS), Pune, India. The 3T3 L-1 cells were incubated at 37°C in an incubator maintained at 95% humidity and 5% CO2 in DMEM medium complemented with 10% fetal bovine serum (FBS) and 1% penicillin-streptomycin.
Synthesized derivatives were evaluated for cytotoxicity in a 3T3-L1 cell line using the MTT assay ([Ernawati et al., 2022]). 8000 cells/well were added in 96-well tissue culture flat-bottom microtiter plates for 24 h and then incubated with synthesized molecules (0-400 µg/ml) for 48 h at 37°C in a CO2 incubator. DMSO was used as solvent at a concentration of 0.1% to ensure that any observed effects were not attributable to the solvent itself, whereas 1 µg/ml doxorubicin was used in toxicity tests as a positive control. Subsequently, the media was replaced with MTT solution (100 µl) diluted in fresh media (0.5 mg/ml), and incubated for 4 h. After incubation, 100 µl of stop solution (50% DMF with 20% SDS) was added to dissolve the formazan crystals, and the plates were further incubated for 1 h. Absorbance was measured at 570 nm using BioTEK Synergy multi-plate reader ([Mosmann, 1983]; [Pratelli et al., 2023]). Percent cell viability was calculated using the following formula:
Cell viability (%)=Absorbance (Untreated - blank) - Absorbance (Test sample- blank)/Absorbance (Untreated - blank)×100

For `CC1(C)S[C@@H]2[C@H](NC(=O)[C@H](N)c3ccccc3)C(=O)N2[C@H]1C(=O)O` [Ampicillin, reference compound], the zone of inhibition at 50 µg/mL [1] was 21 mm, the MIC [2] was over 100 µg/mL and the MIC [3] was 6.25 µg/mL (≈ 17.9 µM). It also gave a zone of inhibition at 50 µg/mL [4] of 19.3 ± 0.58 mm, an MIC [5] of 25 µg/mL (≈ 71.5 µM) and a zone of inhibition at 50 µg/mL [6] of 4 mm. The MIC [7] was 25 µg/mL (≈ 71.5 µM).

With `C=CCOc1cc(C(C)=NO)nc(-c2ccccn2)c1` [NPS1, N-[1-(4-allyloxy[2,2’-bipyridin]-6-yl)ethyldiene]hydroxylamine] the “Biofilm formation inhibition (in words)” value [8] was “highly effective”, the “PI fluorescence (membrane integrity)” value [9] was “exhibited fluorescence indicating membrane instability” and the Zone of inhibition ([10]; S. aureus (MTCC737), 50 µg/ml, ND = Not detected) was 17.00 ± 2.65 mm. For the same compound, the Minimum inhibitory concentration ([2]; K. pneumoniae (MTCC 618), 18 h) was over 100 µg/mL, the Minimum inhibitory concentration ([11]; MRSA 831) was 50 µg/mL (≈ 186 µM) and the Minimum inhibitory concentration ([3]; E. coli (MTCC739), 18 h) was over 100 µg/mL. For the same compound, the “PI fluorescence (membrane integrity)” value [12] was “exhibited fluorescence indicating membrane instability”, the “Reduction in the bacterial load in thigh tissue” value [13] was ~ 1.8 log10 and the Zone of inhibition ([4]; B. subtilis (MTCC 441), 50 µg/ml, ND = Not detected) was 5.33 ± 2.31 mm. The Minimum inhibitory concentration ([14]; S. aureus (MTCC737), 18 h) was 50 µg/mL (≈ 186 µM), the Zone of inhibition [15] was 6.00 ± 3.46 mm and the Minimum inhibitory concentration ([5]; P. aeruginosa (MTCC1934), 18 h) was over 100 µg/mL. It also gave a Zone of inhibition ([6]; E. coli (MTCC739), 50 µg/ml, ND = Not detected) of 9.33 ± 0.58 mm, a Zone of inhibition ([16]; P. aeruginosa (MTCC1934), 50 µg/ml, ND = Not detected) of 7.67 ± 1.53 mm and a Zone of inhibition ([17]; V. cholerae (MTCC 3906), 50 µg/ml, ND = Not detected) of 15.33 ± 1.53 mm. The Zone of inhibition [18] was 8.67 ± 0.58 mm and the Minimum inhibitory concentration ([7]; V. cholerae (MTCC 3906), 18 h) was 12.5 µg/mL (≈ 46.4 µM).

With `C#CCOc1cc(C(=NO)c2ccccc2OC)nc(-c2ccccn2)c1` [NPS2, N-[(4-propargyloxy-[2,2’-bipyridin]-6-yl)(2-methoxyphenyl)methylidene] hydroxylamine] the zone of inhibition at 50 µg/mL [10] was 14 mm, the zone of inhibition at 50 µg/mL [1] was 17 mm and the MIC [2] was over 100 µg/mL. For the same compound, the MIC [11] was 50 µg/mL (≈ 139 µM), the MIC [3] was over 100 µg/mL and the zone of inhibition at 50 µg/mL [4] was 8.33 ± 1.15 mm. It also gave an MIC [14] of 50 µg/mL (≈ 139 µM), an MIC [5] of over 100 µg/mL and a zone of inhibition at 50 µg/mL [6] of 9 mm. For the same compound, the zone of inhibition at 50 µg/mL [16] was 8.33 ± 1.53 mm, the zone of inhibition at 50 µg/mL [17] was 13 ± 1.73 mm and the zone of inhibition at 50 µg/mL [18] was 9.67 ± 0.58 mm. It also gave an MIC [7] of 25 µg/mL (≈ 69.6 µM).

For `COc1ccnc(-c2cc(OC)cc(C(=NO)c3ccccc3OC)n2)c1` [NPS3, N-[(4,4’-dimethoxyl[2,2’-bipyridin]-6-yl)(2-methoxyphenyl)methylidene] hydroxylamine], the “Effect on persister cell counts” value [19] was “significantly reduced”, the zone of inhibition at 50 µg/mL [10] was 13.7 ± 1.15 mm and the zone of inhibition at 50 µg/mL [1] was 14.7 ± 1.15 mm. It also gave an MIC [2] of over 100 µg/mL, an MIC [11] of 50 µg/mL (≈ 137 µM) and an MIC [3] of over 100 µg/mL. For the same compound, the zone of inhibition at 50 µg/mL [4] was 4.67 ± 1.15 mm, the MIC [14] was 50 µg/mL (≈ 137 µM) and the IC50 at 24 h ([20]; 24 h) was 253 µg/mL. For the same compound, the IC50 at 48 h ([20]; 48 h) was 274 µg/mL, the MIC [5] was over 100 µg/mL and the zone of inhibition at 50 µg/mL [16] was 11.3 ± 1.15 mm. It also gave a zone of inhibition at 50 µg/mL [17] of 12.3 ± 2.52 mm, a zone of inhibition at 50 µg/mL [18] of 9.67 ± 0.58 mm and an MIC [7] of 25 µg/mL (≈ 68.4 µM).
